In US4053481A, “2-Aryl-3,4-diphenylisoxazolin-5-ones” (G. D. Searle & Co., priority 1976, dated 1977):

Test system: microsomal-cytosol fraction
Assay: % inhibition of C14-acetate incorporation into lipid fractions (fatty acid and cholesterol biosynthesis) in rat liver microsomal-cytosol fraction
Type: biochemical, Male Charles River rats
Settings: 0.001 M; 37° C., 90 minutes
Procedure: The instant compounds are useful as pharmacological agents as evidenced by their ability to reduce serum triglyceride and cholesterol levels as determined in the following assay:
Male Charles River rats (160-200 g.), having had free access to food and water, are administered a standard diet containing 2% DEAE - cellulose (Reeve Angel anion exchange resin) for 5 days. The rats then are sacrificed and their livers removed immediately. The livers are homogenized in a medium consisting of 0.1 M potassium phosphate, pH 7.4, 0.004 m MgCl2 and 0.03 M nicotinamide, and the microsomalcytosol fraction obtained by centrifugation. 2.0 Ml. of the microsomal-cytosol fraction is incubated, at 37° C. for 90 minutes for fatty acid measurements and for measurement of cholosterol biosynthesis, in a standard assay mixture containing 10 micromoles of sodium acetate containing 0.1 microcuries of 2-C^14 -acetate, 2 micromoles nicotinamide adenine dinucleotide, 2 micromoles nicotinamide adenine dinucleotide phosphate, and 20 micromoles glucose-6-phosphate, and test compound, initially at 0.001 M, is added. All assays are run in duplicate with the assay to which no test compound is added serving as control. Heat inactivated homogenate serves as blank for both control and test systems.
Reaction rate is determined per unit of time by the amount of C^14 label incorporated into the lipid fraction from the radioactive acetate. Results are reported as % inhibition (i.e. (Difference in Reaction Rate between Control and Test Compound/Reaction Rate for Control) × 100).
Typical results are shown below in Table I for the product of Example 2, referred to as Compound I. Also represented are the results for Atromid S® , a brand of clofibrate, marketed as a hypocholesterolemic agent.

CCOC(=O)C(C)(C)Oc1ccc(Cl)cc1 [Atromid-S, clofibrate]
% Inhibition, Fatty Acid Fraction: 24%
% Inhibition, Fraction (first column, qualifier not given): 28%
% Inhibition, Non-Lipid Fraction: 42%
